This note sets out measurements from article PMC9841532, “Exploring the Effect of Halogenation in a Series of Potent and Selective A2B Adenosine Receptor Antagonists” (Journal of Medicinal Chemistry, 2022).

The target of one assay is T1, hA2AAR (Homo sapiens, UniProt P29274).
T1 construct: expressed in transfected cells; host or cells: HeLa (HeLa-A2A) cell membranes
Description: Radioligand binding competition, [3H]ZM241385, membranes from HeLa-A2A cells. To be noted: 1 μM, [3H]ZM241385, human HeLa cells, n = 2. Put shortly: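 Racemates, plus selected enantiomers after chiral resolution, were tested at 25 °C, with a 60 min incubation for one subtype and 30 min for others. Non-specific binding was defined with 10 μM or 100 μM R-PIA. Bound radioactivity was counted after washing and filtration.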

For assay [1], the target named is T2, A2BAR (Homo sapiens, UniProt P29275).
T2 construct: expressed in transfected cells; host or cells: HEK-293 T cells permanently expressing pRK5-A2BAR^SNAP
T2 sequence (P29275 1-332): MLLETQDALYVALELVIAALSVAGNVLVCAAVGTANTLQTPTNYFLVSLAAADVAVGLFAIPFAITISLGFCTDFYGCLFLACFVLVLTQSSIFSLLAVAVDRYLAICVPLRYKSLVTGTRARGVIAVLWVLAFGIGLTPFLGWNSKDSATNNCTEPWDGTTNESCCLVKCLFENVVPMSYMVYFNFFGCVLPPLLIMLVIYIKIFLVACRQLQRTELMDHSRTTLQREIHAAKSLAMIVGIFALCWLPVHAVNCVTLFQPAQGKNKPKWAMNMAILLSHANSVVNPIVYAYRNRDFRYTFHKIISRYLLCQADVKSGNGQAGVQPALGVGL
Nature of the assay: cAMP accumulation assay in HEK-293 cells permanently expressing A2BAR-SNAP. In kind it is cell-based. To be noted: read-out: KB (hA2B). Here is the method: To assess their ability to block A2BAR agonist intrinsic activity, the effect on A2BAR-mediated cAMP accumulation and cellular impedance was evaluated. To this end, we used HEK-293 cells permanently expressing the A2BAR^SNAP construct, which can be visualized upon staining the cells with a SNAP-fluorescent substrate.
Scale bar: […]. […] Data are expressed as mean ± SEM (n = 4).
cAMP accumulation was measured using the LANCE Ultra cAMP kit (PerkinElmer, Waltham, Massachusetts, USA) as previously described.[55] […] The 384-well plate was incubated 1 h at 22 °C in the dark and was then read on a CLARIOstar Microplate Reader (BMG Labtech, Durham, North Carolina, USA). […] Data were fitted by non-linear regression using GraphPad Prism 9 (San Diego, California, USA).

Assay [2] deals with T2, A2BAR. Nature of the assay: Cellular impedance label-free assay (xCELLigence) in A2BAR-SNAP cells. The conditions noted are these: compound 1 μM, NECA 1 μM, 45 min, n = 4. In kind it is cell-based. From the text: To further evaluate the ability of 16b, 16j, 16r, and 16s to preclude A2BAR function in living cells, we took advantage of the cellular impedance label-free method, a widely accepted morphological and functional biosensor of cell status.[39] Accordingly, whole-cell NECA-mediated impedance responses of A2BAR^SNAP cells were monitored in real time in the absence or presence of 16b, 16j, 16r, and 16s.
Figure 4 Blockade of A2BAR-mediated whole-cell label-free responses. (A) Representative example of the impedance signal obtained over the time upon incubation with A2BAR ligands. […] (B) The area under the curve (AUC) derived from the normalized cell index (NCI) shown in (A) was calculated for each condition. Data are expressed as mean ± SEM (n = 4). ***P < 0.001 and **P < 0.01, one-way ANOVA with a Dunnett’s multiple-comparison test when compared to vehicle (Veh).
The xCELLigence RTCA system (Roche) was employed to assess the impact of blocking A2BAR-mediated effects in cellular impedance upon receptor activation, as previously described.[57]−[60] To this end, A2BAR^SNAP cells were growth in 16-well E-plates (Roche), using DMEM supplemented with 1 mM sodium pyruvate, 2 mM L-glutamine, 100 U/mL streptomycin, […] penicillin, and 1.5% (v/v) fetal bovine serum in the presence of 0.5 U/mL of ADA. Of note, wells were previously coated with 50 μL fibronectin (10 μg/mL; Sigma-Aldrich) and the background index for each well was determined with supplemented DMEM (90 μL) in the absence of cells. Subsequently, A2BAR^SNAP cells (90 μL) were plated at a cell density of 10,000 cells/well and grown for 18 h in the RTCA SP device station (Roche) at 37 °C in an atmosphere of 5% CO2. Then, before ligand addition, cell index values were normalized to the same time point using the RTCA software, providing the normalized cell index (NCI). After ligand stimulation, NCI was recorded every 15 s for a total time of at least 45 min. The area under the curve (AUC) for every condition was calculated using GraphPad Prism 9.

Molecules are shown by their SMILES.

T1 sequence (P29274 whole entry): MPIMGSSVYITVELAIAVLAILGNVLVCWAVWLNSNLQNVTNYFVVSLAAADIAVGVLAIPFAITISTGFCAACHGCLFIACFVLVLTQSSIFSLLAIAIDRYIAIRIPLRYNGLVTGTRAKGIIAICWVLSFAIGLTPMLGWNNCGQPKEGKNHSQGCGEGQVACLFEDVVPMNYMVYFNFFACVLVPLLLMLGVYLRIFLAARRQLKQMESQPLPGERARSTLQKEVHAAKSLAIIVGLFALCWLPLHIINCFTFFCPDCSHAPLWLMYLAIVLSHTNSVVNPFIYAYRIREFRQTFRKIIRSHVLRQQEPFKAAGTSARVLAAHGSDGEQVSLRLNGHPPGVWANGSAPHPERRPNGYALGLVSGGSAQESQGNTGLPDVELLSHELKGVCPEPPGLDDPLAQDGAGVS

In the case of `CC1=C(C(=O)OC(C)C)C(c2ccco2)n2c(nc3cc(F)ccc32)N1` (stereo not drawn) [16b], the “% at 1 μM hA2A (percentage displacement of specific binding)” value at hA2AAR is 2%. Also, the Kb at A2BAR [1] came to 800 ± 200 pM. Besides, on A2BAR [2], the “Blockade of NECA-induced changes in cellular impedance (AUC of normalized cell index)” value is on record as “significantly blocked”.
For `CC1=C(C(=O)OC(C)C)C(c2ccco2)n2c(nc3cc(Cl)ccc32)N1` (stereo not drawn) [16j], the “% at 1 μM hA2A (percentage displacement of specific binding)” value at hA2AAR is 24%. The Kb at A2BAR [1] came out at 600 ± 200 pM. At A2BAR [2], the “Blockade of NECA-induced changes in cellular impedance (AUC of normalized cell index)” value was “significantly blocked”.
In the same order, the values of `CC1=C(C(=O)OC(C)C)C(c2ccco2)n2c(nc3cc(Br)ccc32)N1` (stereo not drawn) [16r] are 2%, 1700 ± 600 pM and “significantly blocked”.
